For two compounds, Emax, EC50 and Ki results are on record in ChEMBL document CHEMBL1240489, “Discovery of N-{1-[3-(3-oxo-2,3-dihydrobenzo[1,4]oxazin-4-yl)propyl]piperidin-4-yl}-2-phenylacetamide (Lu AE51090): an allosteric muscarinic M1 receptor agonist with unprecedented selectivity and procognitive potential” (J Med Chem, 2010).

Experiment [1] addresses T1, Muscarinic acetylcholine receptor M3 (Homo sapiens, UniProt P20309). Put plainly: Agonist activity at human muscarinic M3 receptor expressed in BHK-21 cells assessed as increase of acetylcholine-induced calcium flux at 10 uM by FLIPR assay relative to acetylcholine. The experiment is classed as functional, cell-based.
Target sequence in this assay (P20309 whole entry, looked up): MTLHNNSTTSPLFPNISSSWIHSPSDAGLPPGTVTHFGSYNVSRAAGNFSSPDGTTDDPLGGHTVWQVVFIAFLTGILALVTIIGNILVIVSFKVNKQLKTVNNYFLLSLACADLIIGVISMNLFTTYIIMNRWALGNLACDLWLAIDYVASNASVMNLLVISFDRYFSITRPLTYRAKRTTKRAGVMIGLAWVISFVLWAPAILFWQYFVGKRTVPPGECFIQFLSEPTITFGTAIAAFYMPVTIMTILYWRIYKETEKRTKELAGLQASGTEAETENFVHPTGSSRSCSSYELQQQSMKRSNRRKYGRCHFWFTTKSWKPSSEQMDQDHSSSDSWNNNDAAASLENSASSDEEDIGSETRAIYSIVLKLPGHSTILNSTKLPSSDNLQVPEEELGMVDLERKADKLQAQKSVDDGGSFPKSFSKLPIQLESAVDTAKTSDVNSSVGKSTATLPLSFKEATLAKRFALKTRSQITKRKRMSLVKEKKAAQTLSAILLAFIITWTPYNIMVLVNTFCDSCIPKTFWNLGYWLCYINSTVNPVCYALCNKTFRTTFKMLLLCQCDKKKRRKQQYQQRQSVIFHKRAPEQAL
The target of experiment [2] is T2, Muscarinic acetylcholine receptor M5 (Homo sapiens) (UniProt P08912).
T2 sequence (whole entry): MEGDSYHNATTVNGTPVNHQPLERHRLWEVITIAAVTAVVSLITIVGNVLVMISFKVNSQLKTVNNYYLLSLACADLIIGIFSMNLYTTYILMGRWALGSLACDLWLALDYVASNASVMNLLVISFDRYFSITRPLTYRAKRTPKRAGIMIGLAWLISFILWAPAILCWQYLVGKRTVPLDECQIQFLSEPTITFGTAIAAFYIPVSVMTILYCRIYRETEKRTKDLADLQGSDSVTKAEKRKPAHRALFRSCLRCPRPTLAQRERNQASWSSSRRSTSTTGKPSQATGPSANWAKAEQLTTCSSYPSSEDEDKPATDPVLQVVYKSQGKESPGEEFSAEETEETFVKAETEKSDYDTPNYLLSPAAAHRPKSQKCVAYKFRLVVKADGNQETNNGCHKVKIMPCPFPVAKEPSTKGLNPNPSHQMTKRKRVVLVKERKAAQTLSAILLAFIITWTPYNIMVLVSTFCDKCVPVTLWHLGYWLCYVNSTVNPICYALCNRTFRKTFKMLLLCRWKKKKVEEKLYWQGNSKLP
The experiment is described as follows: Agonist activity at human muscarinic M5 receptor expressed in BHK-21 cells assessed as increase of acetylcholine-induced calcium flux by FLIPR assay relative to acetylcholine. The experiment is classed as functional, cell-based. (In general: Calcium assays in cells follow changes in intracellular calcium, usually with a dye or a luminescent sensor.)

Experiment [3] has as its target T3, Muscarinic acetylcholine receptor M5 (Homo sapiens, UniProt P08912).
T3 sequence (P08912 whole entry): T2 sequence (whole entry)
The experiment is described as follows: Agonist activity at human muscarinic M5 receptor expressed in BHK-21 cells assessed as increase of acetylcholine-induced calcium flux by FLIPR assay. The experiment is classed as functional, cell-based.

The target in experiment [4] is T4, Muscarinic acetylcholine receptor M4 (Homo sapiens) (UniProt P08173).
T4 sequence (whole entry): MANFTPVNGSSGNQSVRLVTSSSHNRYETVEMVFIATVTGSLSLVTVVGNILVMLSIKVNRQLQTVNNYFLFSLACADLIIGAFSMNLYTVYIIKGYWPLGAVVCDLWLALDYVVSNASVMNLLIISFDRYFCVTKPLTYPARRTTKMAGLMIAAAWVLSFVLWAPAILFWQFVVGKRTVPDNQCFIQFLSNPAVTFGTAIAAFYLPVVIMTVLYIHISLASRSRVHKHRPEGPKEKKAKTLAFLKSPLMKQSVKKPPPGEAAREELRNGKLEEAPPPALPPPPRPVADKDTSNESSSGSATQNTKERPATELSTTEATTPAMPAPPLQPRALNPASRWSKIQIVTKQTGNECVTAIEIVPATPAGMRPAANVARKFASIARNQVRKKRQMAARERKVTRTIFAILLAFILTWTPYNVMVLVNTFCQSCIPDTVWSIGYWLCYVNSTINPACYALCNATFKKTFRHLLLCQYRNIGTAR
Put plainly: Agonist activity at human muscarinic M4 receptor expressed in BHK-21 cells coexpressing Galpha16 subunit assessed as increase of acetylcholine-induced calcium flux by FLIPR assay relative to acetylcholine. The experiment is classed as functional, cell-based.

The target of experiment [5] is T5, Muscarinic acetylcholine receptor M2 (Homo sapiens) (UniProt P08172).
T5 sequence (whole entry): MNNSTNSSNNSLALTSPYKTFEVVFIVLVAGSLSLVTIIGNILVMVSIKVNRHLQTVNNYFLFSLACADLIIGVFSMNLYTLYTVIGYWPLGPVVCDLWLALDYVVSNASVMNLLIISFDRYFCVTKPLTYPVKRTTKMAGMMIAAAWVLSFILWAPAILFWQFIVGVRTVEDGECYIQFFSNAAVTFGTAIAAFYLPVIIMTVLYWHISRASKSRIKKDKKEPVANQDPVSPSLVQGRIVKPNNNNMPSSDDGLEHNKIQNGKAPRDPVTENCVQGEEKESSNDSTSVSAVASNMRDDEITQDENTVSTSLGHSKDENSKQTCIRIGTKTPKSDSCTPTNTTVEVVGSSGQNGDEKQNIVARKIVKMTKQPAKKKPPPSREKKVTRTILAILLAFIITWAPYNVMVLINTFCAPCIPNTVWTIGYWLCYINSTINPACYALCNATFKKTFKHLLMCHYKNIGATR
Put plainly: Agonist activity at human muscarinic M2 receptor expressed in CHO-K1 cells coexpressing Galpha16 subunit assessed as increase of acetylcholine-induced calcium flux at 10 uM by FLIPR assay relative to acetylcholine. The experiment is classed as functional, cell-based.

Experiment [6] has as its target T6, Muscarinic acetylcholine receptor M4 (Homo sapiens, UniProt P08173).
T6 sequence (P08173 whole entry): T4 sequence (whole entry)
The experiment is described as follows: Agonist activity at human muscarinic M4 receptor expressed in BHK-21 cells coexpressing Galpha16 subunit assessed as increase of acetylcholine-induced calcium flux by FLIPR assay. The experiment is classed as functional, cell-based.

Experiment [7] addresses T7, Muscarinic acetylcholine receptor M1 (Homo sapiens) (UniProt P11229).
T7 sequence (whole entry): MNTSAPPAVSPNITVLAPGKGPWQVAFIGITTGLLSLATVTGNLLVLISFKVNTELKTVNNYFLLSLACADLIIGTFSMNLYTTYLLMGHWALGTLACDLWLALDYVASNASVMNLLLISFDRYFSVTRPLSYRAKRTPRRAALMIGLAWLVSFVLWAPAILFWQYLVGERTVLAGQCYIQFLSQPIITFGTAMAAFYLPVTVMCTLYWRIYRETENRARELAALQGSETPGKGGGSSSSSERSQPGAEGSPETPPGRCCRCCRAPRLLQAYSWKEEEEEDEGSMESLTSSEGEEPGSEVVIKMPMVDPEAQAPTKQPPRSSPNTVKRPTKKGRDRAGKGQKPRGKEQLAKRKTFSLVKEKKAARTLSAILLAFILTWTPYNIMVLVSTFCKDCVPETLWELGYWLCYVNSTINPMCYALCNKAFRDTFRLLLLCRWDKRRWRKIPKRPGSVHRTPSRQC
The experiment is described as follows: Agonist activity at human muscarinic M1 receptor expressed in CHO-K1 cells assessed as increase of acetylcholine-induced calcium flux by FLIPR assay relative to acetylcholine. The experiment is classed as functional, cell-based.

In experiment [8] the target is T8, Muscarinic acetylcholine receptor M1 (Homo sapiens, UniProt P11229).
T8 sequence (P11229 whole entry): T7 sequence (whole entry)

The target of experiment [9] is T1, Muscarinic acetylcholine receptor M3. The experiment is described as follows: Displacement of [3H]-4-DAMP from human muscarinic M3 receptor expressed in BHK-21 cells. The experiment is classed as cell-based.
Target sequence in this assay (P20309 whole entry): as the sequence (P20309 whole entry, looked up) above
The target is the same in experiment [10].
Target sequence in this assay (P20309 whole entry): as the sequence (P20309 whole entry, looked up) above

On to `COc1ccc(CC(=O)NC2CCN(CCCN3C(=O)CCc4cc(F)c(F)cc43)CC2)cc1OC`, for which the maximum response (Emax) worked out at 7% in experiment [1]; 52% in experiment [2]; 48% in experiment [4]; 2% in [5]; 91% in experiment [7]. Also, the EC50 in experiment [3] amounted to 1.2 µM; in experiment [6], 0.3 µM; in experiment [8] it was 0.013 µM.

On to `CCCCCCOc1nsnc1C1=CCCN(C)C1` [XANOMELINE], for which the Emax was found to be 60% in experiment [2], 72% in experiment [4], 9% in experiment [5] and 89% in experiment [7]. The Ki in experiment [9] turned out to be 0.013 µM. The compound also displayed an EC50 in [10] of 0.12 µM.

One may read the Emax as the maximal effect, on the per cent scale that the assay sets. What is called EC50 is the concentration at which the effect is half-maximal. By Ki is commonly meant the dissociation constant of the complex between target and ligand, obtained from inhibition or displacement.
